Measured values reported in US10626081B2, “Farnesoid X receptor agonists and uses thereof” (Metacrine, Inc., priority 2015, dated 2020).
pEC50: −log10 of the molar value.

Biological target: T1, FXR (Homo sapiens, UniProt Q96RI1)
T1 construct: expressed in transfected cells; host or cells: CV-1 cells
T1 sequence (Q96RI1 1-486): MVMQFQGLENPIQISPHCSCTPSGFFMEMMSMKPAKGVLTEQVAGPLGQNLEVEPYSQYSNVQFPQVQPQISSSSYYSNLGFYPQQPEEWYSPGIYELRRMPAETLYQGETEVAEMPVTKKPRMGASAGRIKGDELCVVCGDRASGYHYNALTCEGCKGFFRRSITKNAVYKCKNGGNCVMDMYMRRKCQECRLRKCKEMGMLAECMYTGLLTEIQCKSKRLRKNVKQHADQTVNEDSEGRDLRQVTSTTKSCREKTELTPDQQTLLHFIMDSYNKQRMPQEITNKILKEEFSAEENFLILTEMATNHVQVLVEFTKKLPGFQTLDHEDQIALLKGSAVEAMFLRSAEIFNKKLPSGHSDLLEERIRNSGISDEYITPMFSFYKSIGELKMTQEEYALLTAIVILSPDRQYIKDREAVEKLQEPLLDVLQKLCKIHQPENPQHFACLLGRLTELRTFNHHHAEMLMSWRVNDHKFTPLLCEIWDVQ
T1 sequence (P19793 1-462 partner): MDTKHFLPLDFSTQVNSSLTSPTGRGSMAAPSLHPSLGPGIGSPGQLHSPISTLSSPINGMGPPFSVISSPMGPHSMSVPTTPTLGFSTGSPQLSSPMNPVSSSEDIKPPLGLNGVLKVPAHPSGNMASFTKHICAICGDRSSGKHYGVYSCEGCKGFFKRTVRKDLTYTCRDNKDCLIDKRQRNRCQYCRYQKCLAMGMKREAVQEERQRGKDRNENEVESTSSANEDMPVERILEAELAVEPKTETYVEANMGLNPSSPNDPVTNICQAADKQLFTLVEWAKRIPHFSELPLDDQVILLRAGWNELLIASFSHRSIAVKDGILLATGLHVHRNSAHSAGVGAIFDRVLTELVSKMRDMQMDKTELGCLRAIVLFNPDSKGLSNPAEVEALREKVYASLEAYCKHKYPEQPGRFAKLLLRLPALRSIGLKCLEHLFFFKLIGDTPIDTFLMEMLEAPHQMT
Assay: In Vitro FXR Assay (TK): TK-ECRE-luc reporter in transfected CV-1 cells
Format: cell-based
Conditions: CV-1 cells transfected with hFXR, hRXR, 18 h incubation, luminescence
Procedure: Example B-2: In Vitro FXR Assay (TK)
CV-1 cells were seeded at a density of 2,000,000 cells in a T175 flask with DMEM+10% charcoal double-stripped FBS and incubated at 37° C. in 5% CO2 for 18 h (O/N).
After 18 h of incubation, the medium in the T175 flask was changed with fresh DMEM+10% charcoal super-stripped serum. In a polypropylene tube, 2500 μL OptiMEM (Life Technologies, Cat #31985-062) was combined with expression plasmids for hFXR, hRXR, TK-ECRE-luc and pCMX-YFP. The tube was then briefly vortexed and incubated at room temperature for 5 minutes. Transfection reagent (X-tremeGENE HP from Roche, Cat #06 366 236 001) was added to the OptiMEM/plasmid mixture vortexed and incubated at room temperature for 20 minutes. Following incubation, the transfection reagent/DNA mixture complex was added to cells in the T175 flask and the cells were incubated at 37° C. in 5% CO2 for 18 h (O/N).
Compounds were serially diluted in DMSO and added to transfected CV-1 cells. The cells were then incubated for 18 hrs. The next day cells were lysed and examined for luminescence.

Compound `COC(=O)/C=C/c1cccc(N(Cc2ccc(-c3ccc(N(C)C)cc3)cc2)C(=O)[C@@H]2CCCC[C@H]2O)c1` (relative stereo) [13.25, trans-(E)-Methyl 3-(3-(N-((4′-(dimethylamino)-[1,1′-biphenyl]-4-yl)methyl)-2-hydroxycyclohexanecarboxamido)phenyl)acrylate] has a pEC50 of 5.00 to 6.00.
`COC(=O)/C=C/c1cccc(N(Cc2ccc(-c3ccc(N(C)C)cc3)cc2)C(=O)[C@@H]2CCCC[C@@H]2O)c1` (relative stereo) [13.26, cis-(E)-Methyl 3-(3-(N-((4′-(dimethylamino)-[1,1′-biphenyl]-4-yl)methyl)-2-hydroxycyclohexanecarboxamido)phenyl)acrylate] showed a pEC50 of 5.00 to 6.00.
For `COC(=O)/C=C/c1cccc(N(Cc2ccc(-c3ccc(N(C)C)cc3)cc2)C(=O)[C@@H]2CCC[C@H](O)C2)c1` (relative stereo) [13.27, cis-(E)-Methyl 3-(3-(N-((4′-(dimethylamino)-[1,1′-biphenyl]-4-yl)methyl)-3-hydroxycyclohexanecarboxamido)phenyl)acrylate], the pEC50 was at least 6.00.
With `COC(=O)/C=C/c1cccc(N(Cc2ccc(-c3ccc(N(C)C)cc3)cc2)C(=O)[C@@H]2CCC[C@@H](O)C2)c1` (relative stereo) [13.28, trans-(E)-Methyl 3-(3-(N-((4′-(dimethylamino)-[1,1′-biphenyl]-4-yl)methyl)-3-hydroxycyclohexanecarboxamido)phenyl)acrylate] the pEC50 was under 5.00.
Work on `COC(=O)/C=C/c1cccc(N(Cc2ccc(-c3ccc(N(C)C)cc3)cc2)C(=O)c2ccc(F)c(F)c2)c1` [13.1, (E)-Methyl 3-(3-(N-((4′-(dimethylamino)-[1,1′-biphenyl]-4-yl)methyl)-3,4-difluorobenzamido)phenyl)acrylate] yielded a pEC50 of 5.00 to 6.00.
`COC(=O)/C=C/c1cccc(N(Cc2ccc(-c3ccc(N(C)C)cc3)cc2)C(=O)c2ccc(F)cc2)c1` [13.2, (E)-Methyl 3-(3-(N-((4′-(dimethylamino)-[1,1′-biphenyl]-4-yl)methyl)-4-fluorobenzamido)phenyl)acrylate] was tested, and the pEC50 was 5.00 to 6.00.
For `COC(=O)/C=C/c1cccc(N(Cc2ccc(-c3ccc(N(C)C)cc3)cc2)C(=O)C2(C)CCCCC2)c1` [13.3, (E)-Methyl 3-(3-(N-((4′-(dimethylamino)-[1,1′-biphenyl]-4-yl)methyl)-1-methylcyclohexane-carboxamido)phenyl)acrylate], the pEC50 was 5.00 to 6.00.
Compound `COC(=O)/C=C/c1cc(F)cc(N(Cc2ccc(-c3ccc(N(C)C)cc3)cc2)C(=O)C2CCCCC2)c1` [13.4, (E)-Methyl 3-(3-(N-((4′-(dimethylamino)-[1,1′-biphenyl]-4-yl)methyl)cyclohexanecarboxamido)-5-fluorophenyl)acrylate] has a pEC50 of at least 6.00.
Compound `COC(=O)/C=C/c1cc(F)cc(N(Cc2ccc(-c3ccc(N(C)C)cc3)cc2)C(=O)C2CC3CCC2C3)c1` (stereo not drawn) [13.5, (E)-Methyl 3-(3-(N-((4′-(dimethylamino)-[1,1′-biphenyl]-4-yl)methyl)bicyclo[2.2.1]heptane-2-carboxamido)-5-fluorophenyl)acrylate] has a pEC50 of at least 6.00.
For `COC(=O)/C=C/c1cccc(N(Cc2ccc(-c3ccc(N(C)C)cc3)cc2)C(=O)C2(C)CCOCC2)c1` [13.6, (E)-Methyl 3-(3-(N-((4′-(dimethylamino)-[1,1′-biphenyl]-4-yl)methyl)-4-methyltetrahydro-2H-pyran-4-carboxamido)phenyl)acrylate], the pEC50 was 5.00 to 6.00.
With `COC(=O)/C=C/c1cccc(N(Cc2ccc(-c3ccc(N(C)C)cc3)cc2)C(=O)c2ccccc2OC)c1` [13.7, (E)-Methyl 3-(3-(N-((4′-(dimethylamino)-[1,1′-biphenyl]-4-yl)methyl)-2-methoxybenzamido)phenyl)acrylate] the pEC50 was at least 6.00.
`COC(=O)/C=C/c1cccc(N(Cc2ccc(-c3ccc(N(C)C)cc3)cc2)C(=O)C2CCS(=O)(=O)CC2)c1` [13.8, (E)-Methyl 3-(3-(N-((4′-(dimethylamino)-[1,1′-biphenyl]-4-yl)methyl)-1,1-dioxidotetrahydro-2H-thiopyran-4-carboxamido)phenyl)acrylate] gave a pEC50 of under 5.00.
`COC(=O)/C=C/c1cccc(N(Cc2ccc(-c3ccc(N(C)C)cc3)cc2)C(=O)C2CCSCC2)c1` [13.9, (E)-Methyl 3-(3-(N-((4′-(dimethylamino)-[1,1′-biphenyl]-4-yl)methyl)tetrahydro-2H-thiopyran-4-carboxamido)phenyl)acrylate] showed a pEC50 of at least 6.00.
For `COC(=O)/C=C/c1cccc(N(Cc2ccc(-c3ccc(N(C)C)cc3)cc2)C(=O)c2cccc(OC)c2)c1` [13.10, (E)-Methyl 3-(3-(N-((4′-(dimethylamino)-[1,1′-biphenyl]-4-yl)methyl)-3-methoxybenzamido)phenyl)acrylate], the pEC50 was 5.00 to 6.00.
`COC(=O)/C=C/c1cccc(N(Cc2ccc(-c3ccc(N(C)C)cc3)cc2)C(=O)C2CN(S(C)(=O)=O)C2)c1` [13.11, (E)-Methyl 3-(3-(N-((4′-(dimethylamino)-[1,1′-biphenyl]-4-yl)methyl)-1-(methylsulfonyl)azetidine-3-carboxamido)phenyl)acrylate] was tested, and the pEC50 was 5.00 to 6.00.
With `COC(=O)/C=C/c1cccc(N(Cc2ccc(-c3ccc(N(C)C)cc3)cc2)C(=O)c2ccc(OCCN3CCOCC3)cc2)c1` [13.12, (E)-Methyl 3-(3-(N-((4′-(dimethylamino)-[1,1′-biphenyl]-4-yl)methyl)-4-(2-morpholinoethoxy)benzamido)phenyl)acrylate] the pEC50 was 5.00 to 6.00.
Compound `COC(=O)/C=C/c1cccc(N(Cc2ccc(-c3ccc(N(C)C)cc3)cc2)C(=O)C2CCC(SC)CC2)c1` (stereo not drawn) [13.13, (E)-Methyl 3-(3-(N-((4′-(dimethylamino)-[1,1′-biphenyl]-4-yl)methyl)-4-(methylthio)cyclohexanecarboxamido)phenyl)acrylate] has a pEC50 of 5.00 to 6.00.
`COC(=O)/C=C/c1cccc(N(Cc2ccc(-c3ccc(N(C)C)cc3)cc2)C(=O)[C@H]2CC[C@@H](S(C)(=O)=O)CC2)c1` [13.14, cis-(E)-Methyl 3-(3-(N-((4′-(dimethylamino)-[1,1′-biphenyl]-4-yl)methyl)-4-(methylsulfonyl)cyclohexanecarboxamido)phenyl)acrylate] gave a pEC50 of 5.00 to 6.00.
`COC(=O)/C=C/c1cccc(N(Cc2ccc(-c3ccc(N(C)C)cc3)cc2)C(=O)[C@H]2CC[C@H](S(C)(=O)=O)CC2)c1` [13.15, trans-(E)-methyl 3-(3-(N-((4′-(dimethylamino)-[1,1′-biphenyl]-4-yl)methyl)-4-(methylsulfonyl)cyclohexanecarboxamido)phenyl)acrylate] gave a pEC50 of 5.00 to 6.00.
`COC(=O)/C=C/c1cccc(N(Cc2ccc(-c3ccc(N(C)C)cc3)cc2)C(=O)[C@H]2CC[C@H](C(=O)O)CC2)c1` [13.16, trans-4-(((4′-(Dimethylamino)-[1,1′-biphenyl]-4-yl)methyl)(3-((E)-3-methoxy-3-oxoprop-1-en-1-yl)phenyl)carbamoyl) cyclohexanecarboxylic acid] gave a pEC50 of at least 6.00.
Compound `COC(=O)/C=C/c1cccc(N(Cc2ccc(-c3ccc(N(C)C)cc3)cc2)C(=O)C2CCC(=O)NC2)c1` (stereo not drawn) [13.17, (E)-Methyl 3-(3-(N-((4′-(dimethylamino)-[1,1′-biphenyl]-4-yl)methyl)-6-oxopiperidine-3-carboxamido)phenyl)acrylate] has a pEC50 of 5.00 to 6.00.
In the case of `COC(=O)/C=C/c1cccc(N(Cc2ccc(-c3ccc(N(C)C)cc3)cc2)C(=O)C2CCNC(=O)C2)c1` (stereo not drawn) [13.18, (E)-Methyl 3-(3-(N-((4′-(dimethylamino)-[1,1′-biphenyl]-4-yl)methyl)-2-oxopiperidine-4-carboxamido)phenyl)acrylate], the pEC50 was 5.00 to 6.00.
`COC(=O)/C=C/c1cccc(N(Cc2ccc(-c3ccc(N(C)C)cc3)cc2)C(=O)C2CC[S+]([O-])CC2)c1` (stereo not drawn) [13.19, (E)-Methyl 3-(3-(N-((4′-(dimethylamino)-[1,1′-biphenyl]-4-yl)methyl)-1-oxidotetrahydro-2H-thiopyran-4-carboxamido)phenyl)acrylate] showed a pEC50 of 5.00 to 6.00.
Work on `COC(=O)/C=C/c1cccc(N(Cc2ccc(-c3ccc(N(C)C)cc3)cc2)C(=O)C2CCC([S+](C)[O-])CC2)c1` (stereo not drawn) [13.20, (E)-Methyl 3-(3-(N-((4′-(dimethylamino)-[1,1′-biphenyl]-4-yl)methyl)-4-(methylsulfinyl)cyclohexanecarboxamido)phenyl)acrylate] yielded a pEC50 of 5.00 to 6.00.
